Our source for the Activity values is ChEMBL document CHEMBL2073972, “Contribution of OATP2 (OATP1B1) and OATP8 (OATP1B3) to the hepatic uptake of pitavastatin in humans” (J Pharmacol Exp Ther, 2004).

Series [1] deals with T1, Solute carrier organic anion transporter family member 1B1 (Homo sapiens, UniProt Q9Y6L6).
T1 sequence (Q9Y6L6 whole entry): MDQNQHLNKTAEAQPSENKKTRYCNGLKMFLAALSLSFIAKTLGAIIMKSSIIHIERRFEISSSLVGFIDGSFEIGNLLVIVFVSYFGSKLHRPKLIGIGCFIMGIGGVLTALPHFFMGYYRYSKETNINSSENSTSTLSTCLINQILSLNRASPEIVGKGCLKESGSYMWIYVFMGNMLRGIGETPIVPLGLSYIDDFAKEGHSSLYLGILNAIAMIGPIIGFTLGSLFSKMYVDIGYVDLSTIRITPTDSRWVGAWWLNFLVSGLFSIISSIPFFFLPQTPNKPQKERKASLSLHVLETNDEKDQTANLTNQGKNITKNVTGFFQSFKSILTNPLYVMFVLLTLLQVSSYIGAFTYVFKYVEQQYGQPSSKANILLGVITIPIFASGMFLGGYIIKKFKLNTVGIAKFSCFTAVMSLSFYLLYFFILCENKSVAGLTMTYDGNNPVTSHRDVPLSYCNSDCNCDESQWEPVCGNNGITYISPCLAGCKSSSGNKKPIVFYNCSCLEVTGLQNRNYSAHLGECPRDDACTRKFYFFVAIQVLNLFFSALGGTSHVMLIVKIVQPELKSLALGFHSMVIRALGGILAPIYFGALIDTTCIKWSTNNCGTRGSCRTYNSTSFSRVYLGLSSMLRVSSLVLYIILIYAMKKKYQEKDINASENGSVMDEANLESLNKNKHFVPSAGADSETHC
The series is described as follows: TP_TRANSPORTER: cell accumulation in OATP2-expressing HEK293 cells. In kind it is functional, cell-based.

For series [2], the target named is T2, Solute carrier organic anion transporter family member 1B3 (Homo sapiens, UniProt Q9NPD5).
T2 sequence (Q9NPD5 whole entry): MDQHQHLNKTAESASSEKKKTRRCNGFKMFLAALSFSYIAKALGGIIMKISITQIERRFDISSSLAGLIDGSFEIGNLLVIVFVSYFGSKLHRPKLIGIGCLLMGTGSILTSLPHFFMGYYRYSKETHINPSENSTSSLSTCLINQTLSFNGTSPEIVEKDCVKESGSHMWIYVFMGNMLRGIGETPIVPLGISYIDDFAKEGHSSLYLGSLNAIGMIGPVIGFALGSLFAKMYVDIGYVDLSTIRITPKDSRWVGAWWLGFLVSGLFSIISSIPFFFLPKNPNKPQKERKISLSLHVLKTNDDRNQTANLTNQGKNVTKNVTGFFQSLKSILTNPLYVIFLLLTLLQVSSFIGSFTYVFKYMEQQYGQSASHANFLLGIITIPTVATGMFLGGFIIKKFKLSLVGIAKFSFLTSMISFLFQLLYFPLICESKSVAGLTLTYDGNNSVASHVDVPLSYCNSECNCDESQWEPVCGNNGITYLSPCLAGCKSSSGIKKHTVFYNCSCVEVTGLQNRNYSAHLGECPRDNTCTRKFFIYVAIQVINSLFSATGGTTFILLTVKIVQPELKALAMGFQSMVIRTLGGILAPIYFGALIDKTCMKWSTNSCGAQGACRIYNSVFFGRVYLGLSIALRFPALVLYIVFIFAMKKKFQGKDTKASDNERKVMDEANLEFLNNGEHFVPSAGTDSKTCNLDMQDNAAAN
Nature of the series: TP_TRANSPORTER: cell accumulation in OATP8-expressing HEK293 cells. In kind it is functional, cell-based.

With `CSCC[C@H](NC(=O)[C@H](Cc1ccc(OS(=O)(=O)O)cc1)NC(=O)[C@@H](N)CC(=O)O)C(=O)NCC(=O)N[C@@H](Cc1c[nH]c2ccccc12)C(=O)N[C@@H](CCSC)C(=O)N[C@@H](CC(=O)O)C(=O)N[C@@H](Cc1ccccc1)C(N)=O` [SINCALIDE], the Activity result in series [1] and in series [2] was “substrate []” in each case.

Turning to `O=C(O)C[C@H](O)C[C@H](O)/C=C/c1c(C2CC2)nc2ccccc2c1-c1ccc(F)cc1` [PITAVASTATIN], the Activity entry in series [1] and in series [2] was “substrate []” throughout.

`C[C@]12CC[C@@H]3c4ccc(OS(=O)(=O)O)cc4CC[C@H]3[C@@H]1CCC2=O` [ESTRONE SULFURIC ACID]: the Activity result in series [1] and in series [2] was “substrate []” in each case.

Take `C[C@]12CC[C@@H]3c4ccc(O)cc4CC[C@H]3[C@@H]1CC[C@@H]2O[C@@H]1O[C@H](C(=O)O)[C@@H](O)[C@H](O)[C@H]1O` [ESTRADIOL 17B GLUCURONIDE]: the Activity entry in series [1] and in series [2] was “substrate []” in each case.
